Data on 39 compounds can be found in PubChem BioAssay (NCI).

Some test systems named below: A498 renal; DLD-1 colon; DMS 114 small cell lung; DMS 273 small cell lung; HOP-18 NSCLC; KM20L2 colon; M19-MEL melanoma; P388 leukemia; SN12K1 renal; XF 498 CNS.
What all share (assay): NCI tumour cell line growth inhibition, 48 h

Several values for one entry are separate records, joined by “and”; a condition that tells them apart may be missing. Equal values may be shown once.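 Five compound concentrations were applied to cells in 96-well plates for 48 hours; endpoints were derived by simple linear interpolation of the resulting dose-response curve. GI50 marks 50% less growth. TGI marks complete inhibition of growth.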 Where a SMILES comes first, the peptide text is derived from it. [ ]: non-standard residue; d: D form. The star is where a group is joined. ξ: configuration not given here. ξF = NC(Cc1ccccc1)C(=O)O; Cbz = O=C(OCc1ccccc1)*; Aib = CC(C)(N)C(=O)O Bounds are passed on as bounds.

In the case of `COc1ccc(NC(C)=O)cc1N1C(=O)/C(=C\c2ccccc2)SC1c1cc(OC)c(OC)c(OC)c1` (stereo not drawn), the TGI in the experiment on A498 renal was > 100 µM.
As to `CCOC(=O)C1(C/C=C/CCl)CCCC1=O` (stereo not drawn), in the experiment with A498 renal, the TGI was > 100 µM.
On to `COc1cc(/C=C2\N=C(c3ccccc3)N(c3ccc(C(=O)c4ccccc4)cc3N3C(=O)/C(=C/c4ccc(O)c(OC)c4)N=C3c3ccccc3)C2=O)ccc1O`, for which the TGI in the experiment with A498 renal amounted to 36.7 µM.
With `CCN(CC)CC[n+]1ccc2c(C)c3[nH]c4ccc(O)cc4c3c(C)c2c1`, the GI50 is 20.5 µM in the experiment with A498 renal; 7.81 µM in the experiment on DLD-1 colon; 0.652 µM in the experiment with DMS 114 small cell lung; 1.93 µM in the experiment on DMS 273 small cell lung; 5.6 µM in the experiment with HOP-18 NSCLC; 6.95 µM in the experiment with KM20L2 colon. The GI50 with M19-MEL melanoma is 0.954 µM; in the experiment on P388 leukemia, 0.0256 µM; in the experiment with SN12K1 renal, 0.748 µM. Also, the TGI in the experiment with A498 renal was 74.6 µM and 84.3 µM; in the experiment with DLD-1 colon, > 96.4 µM and 102 µM; in the experiment on DMS 114 small cell lung it was 8.87 µM and 15.4 µM; in the experiment on DMS 273 small cell lung, 19.6 µM and 20.7 µM; in the experiment on HOP-18 NSCLC, 17.9 µM and 42.8 µM; in the experiment with KM20L2 colon, 35.8 µM and 46.4 µM. Moreover, the TGI is 5.48 µM and 6.71 µM in the experiment on M19-MEL melanoma; 2.48 µM and 4.85 µM in the experiment with P388 leukemia; 11.9 µM and 16.6 µM in the experiment on SN12K1 renal.
Regarding `CCOC(=O)Cn1c2ccc(Br)cc2c2nc3ccccc3nc21`, the TGI in the experiment on A498 renal is > 100 µM.
`Cc1[nH]c(=O)[nH]c(=O)c1/C=C/C(=O)NC(CO)CS(=O)CS(C)=O` (stereo not drawn): the TGI with A498 renal was 130 µM; in the experiment with DLD-1 colon, 253 µM; in the experiment with DMS 114 small cell lung it was 42 µM; in the experiment with DMS 273 small cell lung it was 117 µM; in the experiment with HOP-18 NSCLC it was 551 µM; in the experiment with KM20L2 colon, 328 µM. Also, the TGI is 74.3 µM in the experiment on M19-MEL melanoma, 74.8 µM in the experiment on P388 leukemia, 64.8 µM with SN12K1 renal and 8.12 µM in the experiment with XF 498 CNS.
Regarding `CC[C@@]1(O)C(=O)OCc2c1cc1n(c2=O)Cc2cc3ccccc3nc2-1`, the TGI in the experiment on A498 renal turned out to be 0.212 µM; with DLD-1 colon, 25.7 µM; with DMS 114 small cell lung it was 3.27 µM; with DMS 273 small cell lung it was 0.385 µM; in the experiment with HOP-18 NSCLC it was 2.14 µM; in the experiment on KM20L2 colon, 3.65 µM. In addition, the TGI in the experiment on M19-MEL melanoma turned out to be 1.35 µM; in the experiment on P388 leukemia it was 0.42 µM; in the experiment on SN12K1 renal, 1 µM; in the experiment with XF 498 CNS, 0.259 µM.
For the compound `C=C(C)[C@@H]1CCC2=C[C@H](C/C(C)=C\C3=CC(C)=C(O3)[C@H]1O)OC2=O`, the TGI in the experiment with A498 renal is > 100 µM.
For the compound `COC(=O)C1=C(C)N2CCSC2(C)C(C(=O)OC)C1c1cccc(Cl)c1` (stereo not drawn), the TGI was determined as 44.6 µM in the experiment with DMS 114 small cell lung, 43.4 µM in the experiment on KM20L2 colon and 31.9 µM in the experiment on M19-MEL melanoma.
Consider `CCOC(=O)CNC(=O)C(Cc1ccccc1)NC(=O)C(C)(C)NC(=O)OCc1ccccc1` (stereo not drawn) (Cbz-[Aib]-[ξF]-Gly-OEt), for which the TGI with A498 renal is > 100 µM.
For the compound `C[Si](C)(C)c1ccc(-c2c3ccc(-c4cc(Br)cc(Br)c4)nc3nc3nc(-c4cc(Br)cc(Br)c4)ccc23)cc1`, in the experiment with A498 renal, the TGI is > 100 µM.
Take `Cc1c(/C=N/NC(=S)Nc2ccc(Cl)cc2)c(=O)n(-c2ccccc2)n1C`: in the experiment with A498 renal, the TGI is > 58.8 µM.
For `O=C(NC(Cc1ccc(Br)cc1)C(=O)O)c1ccc(I)cc1` (stereo not drawn), the TGI with A498 renal, with DLD-1 colon, with DMS 114 small cell lung, in the experiment with DMS 273 small cell lung, in the experiment with HOP-18 NSCLC and in the experiment on KM20L2 colon was > 100 µM in each case. The TGI in the experiment on M19-MEL melanoma, in the experiment with P388 leukemia, with SN12K1 renal and in the experiment on XF 498 CNS was > 100 µM in each case.
For the compound `NC(=O)C1CCCN1C(=O)C(N)Cc1ccccc1` (stereo not drawn) (H-Phe-Pro-NH2; configuration not given here), the TGI in the experiment on A498 renal was > 100 µM.
`OCC(O)CNc1ncnc2ccccc12` (stereo not drawn): the TGI in the experiment on A498 renal is > 100 µM.
Regarding `COc1ccccc1CC(C)N` (stereo not drawn), the TGI with A498 renal, in the experiment on DLD-1 colon, in the experiment with DMS 114 small cell lung, with DMS 273 small cell lung, with HOP-18 NSCLC and in the experiment on KM20L2 colon was > 100 µM each time. Also, in the experiment on XF 498 CNS, the TGI is > 100 µM.
In the experiment with A498 renal, `Clc1cc(Cl)c2cc3cccc[n+]3cc2c1Cl` gave a TGI of 34 µM.
`Cc1cc2c(c(O)c1-c1c(C)cc(O)c3c1C(=O)C=CC3=O)C(=O)C=CC2=O`: in the experiment on A498 renal, the TGI worked out at 18.9 µM.
Turning to `CSc1nc(CO)c(CO)n1C`, the TGI in the experiment on A498 renal, in the experiment with DLD-1 colon, with DMS 114 small cell lung, in the experiment on DMS 273 small cell lung, in the experiment on HOP-18 NSCLC and with KM20L2 colon was > 100 µM in each case. Also, the TGI in the experiment with M19-MEL melanoma, in the experiment with P388 leukemia, in the experiment with SN12K1 renal and in the experiment on XF 498 CNS was > 100 µM each time.
Regarding `CC(=O)Nc1cccc(N2C(=O)/C(=C\c3cccc(Oc4ccccc4)c3)S(=O)(=O)C2c2ccccc2)c1` (stereo not drawn), in the experiment with A498 renal, the TGI is > 100 µM.
Still for that read-out and setting: as for `C[C@@H]1C(=O)O[C@H]1[C@H](O)CO`, the figure is > 100 µM.
As to `Nc1ccc(O)c2c1C(=O)c1c(N)ccc(O)c1C2=O`, the TGI in the experiment with A498 renal, in the experiment on DLD-1 colon, in the experiment with DMS 114 small cell lung, in the experiment on DMS 273 small cell lung, with M19-MEL melanoma and in the experiment with XF 498 CNS was > 100 µM in each case.
For the compound `COc1ccc2[nH]c3c(c2c1)CC(=O)N1CCCC(CC3O)C1` (stereo not drawn), the TGI in the experiment with A498 renal was > 100 µM.
On to `CCCCCCCCCCCCCC1=C(O)C(=O)C(CC2=C(O)C(=O)C(CCCCCCCCCCCCC)=C(O)C2=O)=C(O)C1=O`, for which, in the experiment with A498 renal, the TGI is > 100 µM.
With `CCCCCCCCCCCCCCCCCCNc1ccn(C2OC(CO)C(OP(=O)(O)OCC(O)COP(=O)(O)OCC3OC(n4cc(F)c(NCCCCCCCCCCCCCCCCCC)nc4=O)CC3O)C2O)c(=O)n1` (stereo not drawn), the TGI in the experiment on A498 renal was > 50 µM.
Same read-out and setting: as for `OC[C@H]1NC[C@@H](O)[C@@H](O)[C@H]1O`, the figure is > 100 µM.
Turning to `COc1cc(/C=N/c2nc3cc4sc(/N=C/c5cc(OC)c(OC)c(OC)c5)nc4cc3s2)cc(OC)c1OC`, in the experiment on A498 renal, the TGI was > 100 µM.
`CC1(CO)COS(=O)OC1` (stereo not drawn): the TGI in the experiment on A498 renal is > 100 µM.
For `CC(=O)O[C@H]1CC[C@H]2[C@@H]3CCC4=CC(=O)C=C[C@]4(O)[C@H]3CC[C@]12C`, the TGI in the experiment on A498 renal is > 100 µM.
On the same count and under the same terms, to `CON(C)C(=O)[C@H]1C[C@@]1(C)CO` belongs > 100 µM.
On to `O=C(Oc1c(Cl)cc(C2(c3cc(Cl)c(OC(=O)c4ccccc4)c(Cl)c3)CCCCC2)cc1Cl)c1ccccc1`, for which, in the experiment on A498 renal, the TGI worked out at 24.1 µM.
Take `CN(Cc1cn(O)c2nc(=N)nc(N)c-2n1)c1ccc(C(=O)NC23CC4CC(CC(C4)C2)C3)cc1`: in the experiment with A498 renal, the TGI turned out to be 57.1 µM.
Turning to `COc1ccc(-c2nc3c(nc2-c2ccc(OC)cc2)C(N)=NS(=O)(=O)N3)cc1`, the TGI in the experiment on A498 renal, in the experiment on DLD-1 colon, in the experiment with DMS 114 small cell lung, in the experiment on DMS 273 small cell lung and in the experiment with M19-MEL melanoma was > 100 µM in each case.
In turn, `C=C1C(=O)O[C@@H]2/C=C(\C)CC/C=C(\C)CC[C@@]12O` had a TGI with A498 renal of 24.8 µM.
In the case of `CCCCN1C(=O)c2c(Br)sc(Br)c2C1=O`, in the experiment on A498 renal, the TGI was > 100 µM.
Still for that read-out and setting: as for `CNC1Cc2c[nH]c3cccc(c23)C12C=C(C)C(=O)O2` (stereo not drawn), the figure is > 100 µM; as for `CC(C)CCCC(C)[C@H]1CC[C@H]2n3c(nc4ccccc43)CCC[C@]12C` (stereo partly drawn), 28 µM; as for `O=C(NCCC1CN(C(=O)OCc2ccccc2)c2ccccc21)OCc1ccccc1` (stereo not drawn), > 100 µM.
On to `CN(C)CCNC(=O)c1cc(Cl)cc2cc3ccccc3nc12`, for which the TGI came out at 2.2 µM in the experiment with A498 renal; 5.35 µM with DLD-1 colon; 2.21 µM in the experiment on DMS 114 small cell lung; 2.71 µM with DMS 273 small cell lung; 21.3 µM in the experiment with HOP-18 NSCLC; 1.42 µM in the experiment on KM20L2 colon. Besides, the TGI in the experiment on M19-MEL melanoma amounted to 3.56 µM; in the experiment on P388 leukemia it was 20.1 µM; in the experiment on SN12K1 renal it was 3.34 µM; with XF 498 CNS, 3.37 µM.
